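Each compound was tested at five concentrations against cells in 96-well plates for 48 hours. GI50 marks 50% less growth.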 Active and inactive are the calls of the source. Rule as the data show it: active = GI50 up to about 1.1 µM and inactive = higher.
Tests used:
Experiment in all cases: DTP human tumour cell line panel, 48 h
HL-60 = system: HL-60
ACHN = system: ACHN
K562 = system: K562
SW-620 = system: SW-620
KM12 = system: KM12
OVCAR-3 = system: OVCAR-3
NCI-H460 = system: NCI-H460
NCI-H226 = system: NCI-H226
HCT-116 = system: HCT-116
PC-3 = system: PC-3
A498 = system: A498
CAKI-1 = system: CAKI-1
SK-OV-3 = system: SK-OV-3
U-251 = system: U-251
SF-539 = system: SF-539
RPMI-8226 = system: RPMI-8226
HCT-15 = system: HCT-15
Malme-3M = system: Malme-3M
LOX IMVI = system: LOX IMVI
DU-145 = system: DU-145

Row | Compound | GI50 (HL-60) | GI50 (ACHN) | GI50 (K562) | GI50 (SW-620) | GI50 (KM12) | GI50 (OVCAR-3) | GI50 (NCI-H460) | GI50 (NCI-H226) | GI50 (HCT-116) | GI50 (PC-3) | GI50 (A498) | GI50 (CAKI-1) | GI50 (SK-OV-3) | GI50 (U-251) | GI50 (SF-539) | GI50 (RPMI-8226) | GI50 (HCT-15) [µM] | GI50 (Malme-3M) | GI50 (LOX IMVI) | GI50 (DU-145)
1 | COc1cc2c(c(OC)c1OC)C(=O)CC2N (stereo unspecified) | > 100 µM (inactive) | > 100 µM (inactive) | > 100 µM (inactive) | > 100 µM (inactive) | > 100 µM (inactive) | > 100 µM (inactive) | > 100 µM (inactive) | > 100 µM (inactive) | > 100 µM (inactive) | > 100 µM (inactive) | > 100 µM (inactive) | > 100 µM (inactive) | > 100 µM (inactive) | > 100 µM (inactive) | > 100 µM (inactive) | > 100 µM (inactive) | > 100 | > 100 µM (inactive) | > 100 µM (inactive) | –
2 | COC1=CC2C(c3cc4ccccc4n3S(=O)(=O)c3ccccc3)CC1CN2C(=O)OCc1ccccc1 (stereo unspecified) | 16.4 µM (inactive) | 28.6 µM (inactive) | 33.3 µM (inactive) | 37.6 µM (inactive) | 26.9 µM (inactive) | 19.5 µM (inactive) | 29.5 µM (inactive) | 27.4 µM (inactive) | 28.2 µM (inactive) | 29.3 µM (inactive) | – | 35.2 µM (inactive) | 28.8 µM (inactive) | 37.3 µM (inactive) | – | 17.2 µM (inactive) | 31.1 | 19.8 µM (inactive) | 24.8 µM (inactive) | 29.2 µM (inactive)
3 | Cc1nn2c(=O)c([N+](=O)[O-])c(/C=C/c3ccco3)nc2s1 | 30.8 µM (inactive) | 60.5 µM (inactive) | 36.6 µM (inactive) | 48.2 µM (inactive) | 39.2 µM (inactive) | 38.8 µM (inactive) | 36.2 µM (inactive) | 77.3 µM (inactive) | 36.3 µM (inactive) | 68.2 µM (inactive) | – | 52.6 µM (inactive) | 43.6 µM (inactive) | 29.4 µM (inactive) | 47.4 µM (inactive) | 36.7 µM (inactive) | 41.5 | 68.9 µM (inactive) | 17.6 µM (inactive) | 40.5 µM (inactive)
4 | CNC(=O)CNC(=O)CCC(=O)OC | – | > 100 µM (inactive) | > 100 µM (inactive) | > 100 µM (inactive) | > 100 µM (inactive) | > 100 µM (inactive) | > 100 µM (inactive) | – | > 100 µM (inactive) | > 100 µM (inactive) | > 100 µM (inactive) | > 100 µM (inactive) | > 100 µM (inactive) | > 100 µM (inactive) | > 100 µM (inactive) | – | – | – | – | > 100 µM (inactive)
5 | N#Cc1ccc(/C=C2\Cc3ccccc3C2=O)cc1 | 67.6 µM (inactive) | > 100 µM (inactive) | > 100 µM (inactive) | > 100 µM (inactive) | > 100 µM (inactive) | > 100 µM (inactive) | > 100 µM (inactive) | 56.9 µM (inactive) | > 100 µM (inactive) | > 100 µM (inactive) | – | 26.2 µM (inactive) | > 100 µM (inactive) | – | > 100 µM (inactive) | > 100 µM (inactive) | > 100 | – | – | > 100 µM (inactive)
6 | Cc1nc(C(N)=S)sc1C(/C=C/c1ccc(Cl)c(Cl)c1)=N/NC(C)(C)C | 61.8 µM (inactive) | > 100 µM (inactive) | – | > 100 µM (inactive) | > 100 µM (inactive) | – | > 100 µM (inactive) | 56.5 µM (inactive) | > 100 µM (inactive) | > 100 µM (inactive) | – | > 100 µM (inactive) | > 100 µM (inactive) | > 100 µM (inactive) | > 100 µM (inactive) | – | > 100 | – | > 100 µM (inactive) | > 100 µM (inactive)
7 | CCOc1cc(C2CC(c3ccc(NS(=O)(=O)c4cc([N+](=O)[O-])ccc4C)cc3)=NN2c2ccc([N+](=O)[O-])cc2[N+](=O)[O-])ccc1O (stereo unspecified) | 40.9 µM (inactive) | 6.76 µM (inactive) | 21.3 µM (inactive) | 21.8 µM (inactive) | 11 µM (inactive) | 11.4 µM (inactive) | – | 7.31 µM (inactive) | 8.65 µM (inactive) | 20 µM (inactive) | – | 16.9 µM (inactive) | 3.43 µM (inactive) | 9.48 µM (inactive) | 7.45 µM (inactive) | 11.3 µM (inactive) | 19.3 | 8.57 µM (inactive) | 16.6 µM (inactive) | 12.8 µM (inactive)
8 | Cc1ccc2ccccc2c1NC1=NCCO1 | 58.5 µM (inactive) | 76.6 µM (inactive) | 56.9 µM (inactive) | > 100 µM (inactive) | 75.3 µM (inactive) | – | 33.7 µM (inactive) | 20.2 µM (inactive) | 45.5 µM (inactive) | – | – | – | > 100 µM (inactive) | > 100 µM (inactive) | 35.6 µM (inactive) | 36.2 µM (inactive) | > 100 | > 100 µM (inactive) | – | > 100 µM (inactive)
9 | COC(=O)C(CC12CC3CC(CC(C3)C1)C2)NC(=O)C(N)CC(=O)O (stereo unspecified) | – | > 100 µM (inactive) | > 100 µM (inactive) | > 100 µM (inactive) | > 100 µM (inactive) | – | > 100 µM (inactive) | – | > 100 µM (inactive) | > 100 µM (inactive) | – | > 100 µM (inactive) | > 100 µM (inactive) | > 100 µM (inactive) | – | > 100 µM (inactive) | > 100 | – | – | > 100 µM (inactive)
10 | c1ccc(CC2COC(c3cccs3)=N2)cc1 (stereo unspecified) | 37.3 µM (inactive) | 78.5 µM (inactive) | 46.6 µM (inactive) | > 100 µM (inactive) | > 89.3 µM (inactive) | > 86.5 µM (inactive) | > 86.5 µM (inactive) | 67.9 µM (inactive) | 54.7 µM (inactive) | – | – | > 100 µM (inactive) | > 68.9 µM (inactive) | 53 µM (inactive) | > 45 µM (inactive) | > 70.3 µM (inactive) | 38.3 | > 100 µM (inactive) | > 74.1 µM (inactive) | 42.1 µM (inactive)
11 | Fc1ccc2c3c([nH]c2c1)CCN(Cc1ccccc1)C3 | 17.3 µM (inactive) | 22.8 µM (inactive) | 18.1 µM (inactive) | 20.1 µM (inactive) | 15.3 µM (inactive) | – | 17.3 µM (inactive) | 19 µM (inactive) | 18.6 µM (inactive) | – | 17.8 µM (inactive) | – | 19.2 µM (inactive) | 19.7 µM (inactive) | 21.7 µM (inactive) | 27.7 µM (inactive) | 21.1 | 18.4 µM (inactive) | 16.9 µM (inactive) | 22.3 µM (inactive)
12 | Cc1cc(S(N)(=O)=O)c(S/C(=N\Nc2ccc([N+](=O)[O-])cc2)c2ccc(Cl)cc2)cc1Cl | 44.3 µM (inactive) | 2.96 µM (inactive) | 3.41 µM (inactive) | 3.22 µM (inactive) | 1.94 µM (inactive) | 1.74 µM (inactive) | 2.17 µM (inactive) | 2.22 µM (inactive) | 3.15 µM (inactive) | – | 4.32 µM (inactive) | 3.42 µM (inactive) | 1.96 µM (inactive) | 2.25 µM (inactive) | 1.96 µM (inactive) | 2.58 µM (inactive) | 4.3 | 1.59 µM (inactive) | 2.1 µM (inactive) | 2.19 µM (inactive)
13 | O=C1NC2C(=O)N(Cc3ccccc3)C(=O)C2N1 (stereo unspecified) | > 100 µM (inactive) | > 100 µM (inactive) | > 100 µM (inactive) | > 100 µM (inactive) | > 100 µM (inactive) | > 100 µM (inactive) | > 100 µM (inactive) | > 100 µM (inactive) | > 100 µM (inactive) | – | > 100 µM (inactive) | > 100 µM (inactive) | > 100 µM (inactive) | > 100 µM (inactive) | > 100 µM (inactive) | > 100 µM (inactive) | > 100 | > 100 µM (inactive) | > 100 µM (inactive) | –
14 | COc1nc(N)c(C#N)c(C#N)c1C#N | > 10 µM (inactive) | > 10 µM (inactive) | > 10 µM (inactive) | > 10 µM (inactive) | > 10 µM (inactive) | > 10 µM (inactive) | – | – | > 10 µM (inactive) | > 10 µM (inactive) | – | > 10 µM (inactive) | > 10 µM (inactive) | > 10 µM (inactive) | > 10 µM (inactive) | > 10 µM (inactive) | > 10 | > 10 µM (inactive) | > 10 µM (inactive) | > 10 µM (inactive)
15 | CCN(CC)S(=O)(=O)c1ccc2[nH]c(NC(=O)OC)nc2c1 | 12.9 µM (inactive) | – | 32.1 µM (inactive) | 33.7 µM (inactive) | 36.9 µM (inactive) | 80.9 µM (inactive) | 49.2 µM (inactive) | > 100 µM (inactive) | 37.4 µM (inactive) | – | – | > 100 µM (inactive) | > 100 µM (inactive) | > 100 µM (inactive) | 30 µM (inactive) | 14 µM (inactive) | 47.2 | > 100 µM (inactive) | 42.6 µM (inactive) | > 100 µM (inactive)
16 | COC1O[C@@H]2CCN3C(=O)[C@@H](OC(=O)c4ccc([N+](=O)[O-])cc4)[C@H]1C23 (stereo partly specified) | – | > 100 µM (inactive) | > 100 µM (inactive) | > 100 µM (inactive) | > 100 µM (inactive) | > 100 µM (inactive) | > 100 µM (inactive) | > 100 µM (inactive) | > 100 µM (inactive) | – | 64.7 µM (inactive) | > 100 µM (inactive) | > 100 µM (inactive) | > 100 µM (inactive) | > 100 µM (inactive) | > 100 µM (inactive) | – | – | > 100 µM (inactive) | > 100 µM (inactive)
17 | CCOC(=O)CCC(NC(=O)c1ccc(Nc2nc3ccc(C(F)(F)F)cc3nc2-c2ccccc2)cc1)C(=O)OCC (stereo unspecified) | > 63.4 µM (inactive) | > 73.6 µM (inactive) | 44.2 µM (inactive) | > 100 µM (inactive) | > 94 µM (inactive) | 26.6 µM (inactive) | 56.6 µM (inactive) | > 57.3 µM (inactive) | > 100 µM (inactive) | – | – | > 100 µM (inactive) | – | > 100 µM (inactive) | 45.5 µM (inactive) | > 84.1 µM (inactive) | > 100 | 23.1 µM (inactive) | > 42 µM (inactive) | > 100 µM (inactive)

— ChEMBL document CHEMBL1201862, “PubChem BioAssay data set” (2004)
